Reference: patent US8178658B2 (Dow AgroSciences, LLC, priority 2008, dated 2012)

Assays:
[1] = test system: beet armyworm (BAW; Spodoptera exigua: Lepidoptera); assay: 96-well microtiter plate-based high throughput (HTS) diet bioassay on beet armyworm (BAW HTS); type: in vivo; conditions: BAW eggs, 12 μg test compound per well, mortality at 6 d post-treatment, mortality class
Method: (§1) Bioassays on beet armyworm (BAW; Spodoptera exigua: Lepidoptera) were conducted using either a 96-well microtiter plate-based high throughput (HTS) bioassay or a 128-well diet tray assay. The HTS assay is a based on a modification of Lewer et al. J. Nat. Prod. 2006, 69, 1506. BAW eggs of were placed on top of artificial diet (100 μl) in each well of 96-well microtiter plate. The diet was pretreated with test compounds (12 μg dissolved in 30 μL of DMSO-acetone-water mixture) layered on top of the diet using a liquid handling system and then allowed to dry for several hours. Infested plates were then covered with a layer of sterile cotton batting and the plate lid, and then held in the dark at 29° C. Mortality was recoded at 6 d post-treatment. Each plate had six replicates. The percent mortality was calculated from the average of the six replicates. In the case of the 128-well diet assay, three to five second instar BAW larvae were placed in each well (3 mL) of the diet tray that had been previously filled with 1 mL of artificial diet to which 50 μg/cm^2 of the test compound (dissolved in 50 μL of 90:10 acetone-water mixture) had been applied (to each of eight wells) and then allowed to dry. Trays were covered with a clear self-adhesive cover, and held at 25° C., 14:10 light-dark for six days. Percent mortality was recorded for the larvae in each well; activity in the eight wells was then averaged. In Table 7, under the BAW HTS or BAW 50 heading, an “A” means that the compound was tested and at least 50 percent mortality was observed whereas, “B” means that either (1) the compound was tested and less than 50 percent mortality was observed or (2) the compound was not tested.

[2] = test system: beet armyworm (BAW; Spodoptera exigua: Lepidoptera); assay: 128-well diet tray assay on beet armyworm (BAW 50); type: in vivo
Method: as §1

[3] = 96-well microtiter plate HTS diet assay
[4] = 128-well diet tray assay; 50 μg/cm^2 of test compound on diet; second instar BAW larvae; mortality class
[5] = 128-well diet tray assay, second instar BAW larvae, 50 μg/cm^2 of test compound on diet; mortality class

Row | Compound | BAW HTS ([1]; 96-well HTS diet bioassay) | BAW HTS [1, 3] | BAW 50 ug/cm2 [2, 4] | BAW HTS ([1]; 96-well HTS diet assay) | BAW 50 ug/cm2 [2, 5]
1 | CCC(O)c1ccc(-n2ccc(-c3ccc(C=NOC4OC(C)C(OC)C(OC)C4OC)cc3)n2)cc1 (mixture of isomers) [Compound 5] | B (either (1) the compound was tested and less than 50 percent mortality was observed or (2) the compound was not tested) | B (either (1) the compound was tested and less than 50 percent mortality was observed or (2) the compound was not tested) | A (the compound was tested and at least 50 percent mortality was observed) |  | 
2 | CCOC(=O)C1CC(c2ccc(C=NOC3OC(C)C(OC)C(OC)C3OC)cc2)=NN1c1ccc(OC(F)(F)F)cc1 (mixture of isomers) [Compound 13] | B (either (1) the compound was tested and less than 50 percent mortality was observed or (2) the compound was not tested) | B (either (1) the compound was tested and less than 50 percent mortality was observed or (2) the compound was not tested) | A (the compound was tested and at least 50 percent mortality was observed) |  | 
3 | COC1C(C)OC(ON=Cc2ccc(C3=NN(c4ccc(OC(F)(F)F)cc4)C(C(=O)OCC(C)C)C3)cc2)C(OC)C1OC (mixture of isomers) [Compound 14] | B (either (1) the compound was tested and less than 50 percent mortality was observed or (2) the compound was not tested) | B (either (1) the compound was tested and less than 50 percent mortality was observed or (2) the compound was not tested) | B (either (1) the compound was tested and less than 50 percent mortality was observed or (2) the compound was not tested) |  | 
4 | CCOC1C(OC)C(C)OC(ON=Cc2ccc(C3NC(c4ccc(OC(F)(F)F)cc4)=NO3)cc2)C1OC (mixture of isomers) [Compound 130] | A (the compound was tested and at least 50 percent mortality was observed) | A (the compound was tested and at least 50 percent mortality was observed) | A (the compound was tested and at least 50 percent mortality was observed) |  | 
5 | CCOC1C(OC)C(C)OC(OC(=O)Nc2ccc(C3=NN(c4ccc(OC(F)(F)C(F)(F)F)cc4)CC3CN(C)C)cc2)C1OC (mixture of isomers) [Compound 180] |  | B (either (1) the compound was tested and less than 50 percent mortality was observed or (2) the compound was not tested) | A (the compound was tested and at least 50 percent mortality was observed) | B (either (1) the compound was tested and less than 50 percent mortality was observed or (2) the compound was not tested) | 
6 | COC1CC(OC(=O)Nc2ccc(-c3ncn(-c4ccc(OC(F)(F)C(F)(F)F)cc4)n3)cc2)OC(C)C1O (mixture of isomers) [Compound 244] |  | B (either (1) the compound was tested and less than 50 percent mortality was observed or (2) the compound was not tested) | A (the compound was tested and at least 50 percent mortality was observed) | B (either (1) the compound was tested and less than 50 percent mortality was observed or (2) the compound was not tested) | 
7 | CCOC1C(OC)C(C)OC(OC(=O)Nc2ccc(C3=NC(c4ccc(OC(F)(F)F)cc4)CO3)cc2)C1OC (mixture of isomers) [Compound 247] |  | B (either (1) the compound was tested and less than 50 percent mortality was observed or (2) the compound was not tested) | A (the compound was tested and at least 50 percent mortality was observed) | B (either (1) the compound was tested and less than 50 percent mortality was observed or (2) the compound was not tested) | 
8 | COc1cccc(-c2cnn(-c3ccc(C=NOC4OC(C)C(OC)C(OC)C4OC)cc3)c2)c1 (stereo not drawn) [Compound 1] | A (the compound was tested and at least 50 percent mortality was observed) |  |  | A (the compound was tested and at least 50 percent mortality was observed) | B (either (1) the compound was tested and less than 50 percent mortality was observed or (2) the compound was not tested)
9 | COC1C(C)OC(ON=Cc2ccc(-n3ccc(-c4ccc(Cl)cc4)n3)cc2)C(OC)C1OC (stereo not drawn) [Compound 2] | A (the compound was tested and at least 50 percent mortality was observed) |  |  | A (the compound was tested and at least 50 percent mortality was observed) | B (either (1) the compound was tested and less than 50 percent mortality was observed or (2) the compound was not tested)
10 | COC1C(C)OC(ON=Cc2ccc(-n3ccc(-c4ccccn4)n3)cc2)C(OC)C1OC (stereo not drawn) [Compound 3] | A (the compound was tested and at least 50 percent mortality was observed) |  |  | A (the compound was tested and at least 50 percent mortality was observed) | B (either (1) the compound was tested and less than 50 percent mortality was observed or (2) the compound was not tested)
11 | COC1C(C)OC(ON=Cc2ccc(-n3ccc(-c4cccs4)n3)cc2)C(OC)C1OC (stereo not drawn) [Compound 4] | B (either (1) the compound was tested and less than 50 percent mortality was observed or (2) the compound was not tested) |  |  | B (either (1) the compound was tested and less than 50 percent mortality was observed or (2) the compound was not tested) | B (either (1) the compound was tested and less than 50 percent mortality was observed or (2) the compound was not tested)
12 | COC1C(C)OC(ON=Cc2ccc(-c3ccn(-c4ccc(SC(F)(F)F)cc4)n3)cc2)C(OC)C1OC (stereo not drawn) [Compound 6] | B (either (1) the compound was tested and less than 50 percent mortality was observed or (2) the compound was not tested) | B (either (1) the compound was tested and less than 50 percent mortality was observed or (2) the compound was not tested) | A (the compound was tested and at least 50 percent mortality was observed) |  | 
13 | COC1C(C)OC(ON=Cc2ccc(-c3ccn(-c4ccc(OC(F)(F)C(F)F)cc4)n3)cc2)C(OC)C1OC (stereo not drawn) [Compound 7] | B (either (1) the compound was tested and less than 50 percent mortality was observed or (2) the compound was not tested) | B (either (1) the compound was tested and less than 50 percent mortality was observed or (2) the compound was not tested) | A (the compound was tested and at least 50 percent mortality was observed) |  | 
14 | COC1C(C)OC(ON=Cc2ccc(-c3ccn(-c4ccc(OC(F)(F)C(F)(F)F)cc4)n3)cc2)C(OC)C1OC (stereo not drawn) [Compound 8] | B (either (1) the compound was tested and less than 50 percent mortality was observed or (2) the compound was not tested) | B (either (1) the compound was tested and less than 50 percent mortality was observed or (2) the compound was not tested) | A (the compound was tested and at least 50 percent mortality was observed) |  | 
15 | COC1C(C)OC(ON=Cc2ccc(-c3ccn(-c4ccc(SC)cc4)n3)cc2)C(OC)C1OC (stereo not drawn) [Compound 9] | B (either (1) the compound was tested and less than 50 percent mortality was observed or (2) the compound was not tested) | B (either (1) the compound was tested and less than 50 percent mortality was observed or (2) the compound was not tested) | A (the compound was tested and at least 50 percent mortality was observed) |  | 
16 | COC1C(C)OC(ON=Cc2ccc(-c3ccn(-c4ccc(C(C)C)cc4)n3)cc2)C(OC)C1OC (stereo not drawn) [Compound 10] | B (either (1) the compound was tested and less than 50 percent mortality was observed or (2) the compound was not tested) | B (either (1) the compound was tested and less than 50 percent mortality was observed or (2) the compound was not tested) | A (the compound was tested and at least 50 percent mortality was observed) |  | 
17 | COC1C(C)OC(ON=Cc2ccc(-c3ccn(-c4ccc(C(C)(C)C)cc4)n3)cc2)C(OC)C1OC (stereo not drawn) [Compound 11] | B (either (1) the compound was tested and less than 50 percent mortality was observed or (2) the compound was not tested) | B (either (1) the compound was tested and less than 50 percent mortality was observed or (2) the compound was not tested) | A (the compound was tested and at least 50 percent mortality was observed) |  | 
18 | COC1C(C)OC(ON=Cc2ccc(-c3ccn(-c4ccc(OC(F)(F)F)cc4)n3)cc2)C(OC)C1OC (stereo not drawn) [Compound 12] | B (either (1) the compound was tested and less than 50 percent mortality was observed or (2) the compound was not tested) | B (either (1) the compound was tested and less than 50 percent mortality was observed or (2) the compound was not tested) | A (the compound was tested and at least 50 percent mortality was observed) |  | 
